Experimental data reported in patent publication US11685726B2, “Pharmaceutical compositions of 6-(2-(2H-tetrazol-5-yl)ethyl)-6-fluorodecahydroisoquinoline-3-carboxylic acid and ester derivatives thereof” (Sea Pharmaceuticals LLC, priority 2020, dated 2023).

Tests used:
[1] = LCMS bioanalysis of compound levels in rat samples (plasma, CSF, brain) after administration; type: in vivo; details: lower limit of quantification 1 ng/ml
Excerpt: Measurement of Compound 1 or Compound 2 from rat samples (plasma, cerebral spinal fluid “CSF” or brain homogenate) was done by high resolution using a sensitive LCMS method.
Extracts of biological samples (either organic solvent precipitated or organic solvent extracted i. plasma or ii. CSF or iii. homogenates of whole brains from Compound 1 or Compound 2 treated rats) were subjected to LCMS and were compared to freshly prepared standard curves on exactly the same LCMS instrument. The standard curves were prepared of Compound 1 or Compound 2 at known concentrations dispensed (spiked) into rat plasma (supplied by Bioivt formerly Bioreclamation, Cat. No. RAT00PLK2Y2N, Bioivt, Hicksville N.Y. USA) as Sprague Dawley male rat plasma prepared by collection of blood into potassium-EDTA “K2-EDTA” tubes, centrifuged and stored at −80 C until usage). […] The lower limit of quantification of Compound 1 or Compound 2 based on the conditions used was 1 ng/ml and the standard curve was linear to 5,000 ng/ml. […]
Acute administration of test compound 1 or test compound 2 by routes described (either PO, SC or IV) was done to rats and samples collected at the timepoints described for subsequent extraction, dissolution and quantitative LCMS bioanalysis. […]

[2] = test system: NMDA receptor; assay: Whole cell patch-clamp recording of NMDA induced currents in pyramidal neurons of rat brain prefrontal cortex slices; type: cell-based; details: Tested at 30 pM (so in the source); 50 μM NMDA; rat brain cortex slices
Protocol: Additionally biological activity of compounds as antagonists of AMPA receptors or NMDA receptors (also called ionotropic glutamate-gated ion channels) were conducted using ex vivo functional electrophysiological assays of pyramidal neurons in slices of rat brain prefrontal cortex. Effects of test compounds cf. reference compounds were studied by whole cell patch-clamp electrophysiology recordings of s-AMPA-induced currents or NMDA-induced currents, respectively, using rat brain slice prefrontal cortex (layer V) pyramidal neurons.
Male Sprague Dawley rats were supplied by Charles River Laboratories (Wilmington, Mass. USA) and were housed 4 per cage within a temperature (20.5-23.5° C.) and humidity (30-80%) controlled environment on a 12 hour light/dark cycle with access to food (Teklad Global Soy Protein, Cat. No. T.2920X10, Envigo, Indianapolis, Ind., USA) and water ad libitum. […]
All test compound experiments were carried out in the voltage-clamp recording configuration of the whole cell patch-clamp technique and all recordings performed at a holding potential of −60 mV. Recordings were monitored on a Dell personal computer (PC) running Axon pClamp software (Molecular Devices, Sunnyvale, Calif., USA) and digitized at 10 kHz. […]

Compound	compound levels in vivo by LCMS [1]	% inhibition +/- SEM of NMDA induced currents in neurons [2]
O=C(O)[C@@H]1C[C@H]2CC(F)(CCc3nnn[nH]3)CC[C@H]2CN1 (stereo in doubt) [Compound 2, (3S,4aS,6R,8aR)-6-fluoro-6-[2-(1H-1,2,3,4-tetrazol-5-yl)ethyl]-decahydroisoquinoline-3-carboxylic acid]	below limit of detection	
O=C(O)[C@@H]1C[C@H]2C[C@@](F)(CCc3nnn[nH]3)CC[C@H]2CN1 [Compound 1, (3S,4aS,6S,8aR)-6-fluoro-6-[2-(1H-1,2,3,4-tetrazol-5-yl)ethyl]-decahydroisoquinoline-3-carboxylic acid]		61.0 ± 6.3 (n = 3) %
